Entries after “also recorded” stand apart in the source; their conditions may differ.
Test system: COVID-19 pseudovirus
Design: species or system COVID-19 (SARS-CoV-2)

O=[O+][O-] [ozone]
inactivation of COVID-19 pseudovirus: almost completely inactivated; also recorded: complete inactivation

— US12600988B2, “Coronavirus pseudovirus packaging system, packaging method therefor, and application of coronavirus pseudovirus in evaluating disinfection efficacy” (priority 2020, dated 2026)
